# Source: PubChem BioAssay AID1259407 (Chemical Carcinogenesis Research Information System (CCRIS), 2018)
# Active and inactive are the calls of the source. No rule for the calls is given here.
# Tested on: CCRIS mutagenicity, Ames/micronucleus/aberration tests
# Experiment: CCRIS mutagenicity studies
# [1] = Test System: AMES SALMONELLA TYPHIMURIUM, Strain/Indicator: TA98, Metabolic Activation: NONE, Method: PREINCUBATION
# [2] = Test System: AMES SALMONELLA TYPHIMURIUM, Strain/Indicator: TA100, Metabolic Activation: NONE, Method: PREINCUBATION
# [3] = Test System: AMES SALMONELLA TYPHIMURIUM, Strain/Indicator: TA102, Metabolic Activation: NONE, Method: PREINCUBATION
# [4] = Test System: AMES SALMONELLA TYPHIMURIUM, Strain/Indicator: TA1535, Metabolic Activation: NONE, Method: PREINCUBATION
# [5] = Test System: AMES SALMONELLA TYPHIMURIUM, Strain/Indicator: TA1537, Metabolic Activation: NONE, Method: PREINCUBATION
# [6] = Test System: AMES SALMONELLA TYPHIMURIUM, Strain/Indicator: TA100, Metabolic Activation: RAT, LIVER, S-9, AROCLOR, Method: PREINCUBATION
# [7] = Test System: AMES SALMONELLA TYPHIMURIUM, Strain/Indicator: TA102, Metabolic Activation: RAT, LIVER, S-9, AROCLOR, Method: PREINCUBATION
compound,measurement,setting,value
O=S(O)CO,mutagenic call,[1],inactive; negative
same,mutagenic call,"Test System: AMES SALMONELLA TYPHIMURIUM, Strain/Indicator: TA98, Metabolic Activation: RAT LIVER S-9, PHENOBARBITAL AND BETA-NAPHTHOFLAVONE, Method: PREINCUBATION",inactive; negative
same,mutagenic call,[2],inactive; negative
same,mutagenic call,"Test System: AMES SALMONELLA TYPHIMURIUM, Strain/Indicator: TA100, Metabolic Activation: RAT LIVER S-9, PHENOBARBITAL AND BETA-NAPHTHOFLAVONE, Method: PREINCUBATION",inactive; negative
same,mutagenic call,[3],inactive; negative
same,mutagenic call,"Test System: AMES SALMONELLA TYPHIMURIUM, Strain/Indicator: TA102, Metabolic Activation: RAT LIVER S-9, PHENOBARBITAL AND BETA-NAPHTHOFLAVONE, Method: PREINCUBATION",inactive; negative
same,mutagenic call,"Test System: AMES SALMONELLA TYPHIMURIUM, Strain/Indicator: TA104, Metabolic Activation: NONE, Method: PREINCUBATION",inactive; negative
same,mutagenic call,"Test System: AMES SALMONELLA TYPHIMURIUM, Strain/Indicator: TA104, Metabolic Activation: RAT LIVER S-9, PHENOBARBITAL AND BETA-NAPHTHOFLAVONE, Method: PREINCUBATION",inactive; negative
same,mutagenic call,[4],inactive; negative
same,mutagenic call,"Test System: AMES SALMONELLA TYPHIMURIUM, Strain/Indicator: TA1535, Metabolic Activation: RAT LIVER S-9, PHENOBARBITAL AND BETA-NAPHTHOFLAVONE, Method: PREINCUBATION",inactive; negative
same,mutagenic call,[5],inactive; negative
same,mutagenic call,"Test System: AMES SALMONELLA TYPHIMURIUM, Strain/Indicator: TA1537, Metabolic Activation: RAT LIVER S-9, PHENOBARBITAL AND BETA-NAPHTHOFLAVONE, Method: PREINCUBATION",inactive; negative
same,mutagenic call,"Test System: E.COLI, Strain/Indicator: WP2UVRA/PKM101, Metabolic Activation: NONE, Method: PREINCUBATION",inactive; negative
same,mutagenic call,"Test System: E.COLI, Strain/Indicator: WP2UVRA/PKM101, Metabolic Activation: RAT LIVER S-9, PHENOBARBITAL AND BETA-NAPHTHOFLAVONE, Method: PREINCUBATION",inactive; negative
same,mutagenic call,"Test System: E.COLI, Strain/Indicator: WP2UVRA, Metabolic Activation: NONE, Method: PREINCUBATION",inactive; negative
same,mutagenic call,"Test System: E.COLI, Strain/Indicator: WP2UVRA, Metabolic Activation: RAT LIVER S-9, PHENOBARBITAL AND BETA-NAPHTHOFLAVONE, Method: PREINCUBATION",inactive; negative
OCCN(CCO)CCO,mutagenic call,"End Point: IN VITRO CHROMOSOMAL ABERRATIONS, Test System: CHINESE HAMSTER OVARY CELLS, Metabolic Activation: NONE",inactive; negative
same,mutagenic call,"End Point: IN VITRO CHROMOSOMAL ABERRATIONS, Test System: CHINESE HAMSTER OVARY CELLS, Metabolic Activation: RAT, LIVER, S-9, AROCLOR 1254",inactive; negative
same,mutagenic call,"End Point: IN VITRO CHROMOSOMAL ABERRATIONS, Test System: CHO, Metabolic Activation: NONE",inactive; negative
same,mutagenic call,"End Point: IN VITRO CHROMOSOMAL ABERRATIONS, Test System: CHO, Metabolic Activation: RAT, LIVER, S-9, AROCLOR 1254",inactive; negative
same,mutagenic call,"End Point: IN VIVO MICRONUCLEUS, Test System: POLYCHROMATIC BLOOD LYMPHOCYTES, Species: MOUSE, Strain/Sex: B6C3F1/MALE, FEMALE, Route: DERMAL",inactive; negative
same,mutagenic call,"Test System: AMES SALMONELLA TYPHIMURIUM, Strain/Indicator: TA98, Metabolic Activation: HAMSTER LIVER S-9, AROCLOR-1254 (10%), Method: PREINCUBATION",inactive; negative
same,mutagenic call,"Test System: AMES SALMONELLA TYPHIMURIUM, Strain/Indicator: TA98, Metabolic Activation: HAMSTER, LIVER, S-9 (10%), AROCLOR 1254, Method: PREINCUBATION",inactive; negative
same,mutagenic call,[1],inactive; negative
same,mutagenic call,"Test System: AMES SALMONELLA TYPHIMURIUM, Strain/Indicator: TA98, Metabolic Activation: RAT LIVER S-9, AROCLOR-1254 (10%), Method: PREINCUBATION",inactive; negative
same,mutagenic call,"Test System: AMES SALMONELLA TYPHIMURIUM, Strain/Indicator: TA98, Metabolic Activation: RAT, LIVER, S-9 (10%), AROCLOR 1254, Method: PREINCUBATION",inactive; negative
same,mutagenic call,"Test System: AMES SALMONELLA TYPHIMURIUM, Strain/Indicator: TA100, Metabolic Activation: HAMSTER LIVER S-9, AROCLOR-1254 (10%), Method: PREINCUBATION",inactive; negative
same,mutagenic call,"Test System: AMES SALMONELLA TYPHIMURIUM, Strain/Indicator: TA100, Metabolic Activation: HAMSTER, LIVER, S-9 (10%), AROCLOR 1254, Method: PREINCUBATION",inactive; negative
same,mutagenic call,[2],inactive; negative
same,mutagenic call,"Test System: AMES SALMONELLA TYPHIMURIUM, Strain/Indicator: TA100, Metabolic Activation: RAT LIVER S-9, AROCLOR-1254 (10%), Method: PREINCUBATION",inactive; negative
same,mutagenic call,"Test System: AMES SALMONELLA TYPHIMURIUM, Strain/Indicator: TA100, Metabolic Activation: RAT, LIVER, S-9 (10%), AROCLOR 1254, Method: PREINCUBATION",inactive; negative
same,mutagenic call,"Test System: AMES SALMONELLA TYPHIMURIUM, Strain/Indicator: TA1535, Metabolic Activation: HAMSTER LIVER S-9, AROCLOR-1254 (10%), Method: PREINCUBATION",inactive; negative
same,mutagenic call,"Test System: AMES SALMONELLA TYPHIMURIUM, Strain/Indicator: TA1535, Metabolic Activation: HAMSTER, LIVER, S-9 (10%), AROCLOR 1254, Method: PREINCUBATION",inactive; negative
same,mutagenic call,[4],inactive; negative
same,mutagenic call,"Test System: AMES SALMONELLA TYPHIMURIUM, Strain/Indicator: TA1535, Metabolic Activation: RAT LIVER S-9, AROCLOR-1254 (10%), Method: PREINCUBATION",inactive; negative
same,mutagenic call,"Test System: AMES SALMONELLA TYPHIMURIUM, Strain/Indicator: TA1535, Metabolic Activation: RAT, LIVER, S-9 (10%), AROCLOR 1254, Method: PREINCUBATION",inactive; negative
same,mutagenic call,"Test System: AMES SALMONELLA TYPHIMURIUM, Strain/Indicator: TA1537, Metabolic Activation: HAMSTER LIVER S-9, AROCLOR-1254 (10%), Method: PREINCUBATION",inactive; negative
same,mutagenic call,"Test System: AMES SALMONELLA TYPHIMURIUM, Strain/Indicator: TA1537, Metabolic Activation: HAMSTER, LIVER, S-9 (10%), AROCLOR 1254, Method: PREINCUBATION",inactive; negative
same,mutagenic call,[5],inactive; negative
same,mutagenic call,"Test System: AMES SALMONELLA TYPHIMURIUM, Strain/Indicator: TA1537, Metabolic Activation: RAT LIVER S-9, AROCLOR-1254 (10%), Method: PREINCUBATION",inactive; negative
same,mutagenic call,"Test System: AMES SALMONELLA TYPHIMURIUM, Strain/Indicator: TA1537, Metabolic Activation: RAT, LIVER, S-9 (10%), AROCLOR 1254, Method: PREINCUBATION",inactive; negative
CC(C)(N=O)[N+](=O)[O-],mutagenic call,[1],active; positive
same,mutagenic call,"Test System: AMES SALMONELLA TYPHIMURIUM, Strain/Indicator: TA98, Metabolic Activation: RAT, LIVER, S-9, AROCLOR, Method: PREINCUBATION",inactive; negative
same,mutagenic call,[2],inactive; negative
same,mutagenic call,[6],inactive; negative
same,mutagenic call,[3],inactive; negative
same,mutagenic call,[7],inactive; negative
CC(C)(C)[N+](=O)[O-],mutagenic call,[2],inactive; negative
same,mutagenic call,[6],inactive; negative
same,mutagenic call,[3],inactive; negative
same,mutagenic call,[7],inactive; negative
